The text below walks through data of patent US20060052396A1, “Arylamines for the treatment of conditions associated with gsk-3” (priority 2001, published 2006).

Usually melting point stands for the temperature of the solid-liquid transition.

In turn, `CN(C)S(=O)(=O)c1ccccc1-c1cnc(N)c(C(=O)Nc2cccnc2)n1` [Example 235, 3-Amino-6-{2-[(dimethylamino)sulfonyl]phenyl}-N-pyridin-3-ylpyrazine-2-carboxamide] yielded a melting point of 221.5 to 223 °C.
